Measured values published in BindingDB's records for doi:10.1021/np400148e (University of Eastern Piedmont, 2013).
pIC50: −log10 of the molar value.

Target: Integrase (Human immunodeficiency virus 1, UniProt Q76353)
Assay: Inhibition of HIV-1 integrase

pIC50: 4.40
SMILES: COc1cc(C=CC(=O)CC(=O)C=Cc2ccc(O)c(OC)c2)ccc1O
